Numbers after ± are expanded uncertainties.
Experiments:
[1] = 81.5 kPa, Liquid
[2] = xn = mol fraction of the nth substance listed; conditions: 81.5 kPa, Liquid

CC(O)CO (centres undefined) [1,2-propanediol]
[1]
Conditions | mass density [kg/m3]
293.15 K | 1036.3 ± 0.24
303.15 K | 1028.89 ± 0.23
313.15 K | 1021.35 ± 0.22
323.15 K | 1013.68 ± 0.21
333.15 K | 1005.86 ± 0.2
343.15 K | 997.86 ± 0.19

COCCO [2-methoxyethan-1-ol]
[1]
Conditions | mass density [kg/m3]
293.15 K | 964.86 ± 0.23
303.15 K | 955.68 ± 0.24
313.15 K | 946.38 ± 0.25
323.15 K | 936.95 ± 0.27
333.15 K | 927.38 ± 0.28
343.15 K | 917.64 ± 0.29

COCCO [2-methoxyethan-1-ol] + CC(C)O
mass density [kg/m3], [2]
Conditions | 293.15 K | 303.15 K | 313.15 K | 323.15 K | 333.15 K | 343.15 K
x1 = 0.0823 | 800.06 ± 0.47 | 791.49 ± 0.48 | 782.64 ± 0.49 | 773.45 ± 0.51 | 763.86 ± 0.52 | 753.79 ± 0.54
x1 = 0.1565 | 813.56 ± 0.45 | 804.91 ± 0.46 | 796 ± 0.47 | 786.79 ± 0.49 | 777.21 ± 0.5 | 767.2 ± 0.52
x1 = 0.2367 | 828.13 ± 0.43 | 819.4 ± 0.44 | 810.43 ± 0.45 | 801.18 ± 0.47 | 791.6 ± 0.48 | 781.64 ± 0.5
x1 = 0.3166 | 842.63 ± 0.4 | 833.83 ± 0.42 | 824.81 ± 0.43 | 815.54 ± 0.45 | 805.96 ± 0.46 | 796.02 ± 0.47
x1 = 0.4015 | 858.01 ± 0.38 | 849.14 ± 0.4 | 840.08 ± 0.41 | 830.78 ± 0.42 | 821.21 ± 0.44 | 811.31 ± 0.45
x1 = 0.4766 | 871.62 ± 0.36 | 862.69 ± 0.38 | 853.59 ± 0.39 | 844.26 ± 0.4 | 834.69 ± 0.42 | 824.82 ± 0.43
x1 = 0.5605 | 886.76 ± 0.34 | 877.79 ± 0.35 | 868.64 ± 0.37 | 859.3 ± 0.38 | 849.72 ± 0.39 | 839.87 ± 0.41
x1 = 0.6403 | 901.1 ± 0.32 | 892.08 ± 0.33 | 882.9 ± 0.35 | 873.54 ± 0.36 | 863.96 ± 0.37 | 854.14 ± 0.39
x1 = 0.7179 | 914.98 ± 0.3 | 905.92 ± 0.31 | 896.72 ± 0.33 | 887.34 ± 0.34 | 877.76 ± 0.35 | 867.96 ± 0.37
x1 = 0.7925 | 928.26 ± 0.28 | 919.16 ± 0.29 | 909.94 ± 0.31 | 900.55 ± 0.32 | 890.96 ± 0.33 | 881.18 ± 0.35
x1 = 0.8593 | 940.12 ± 0.26 | 931 ± 0.27 | 921.74 ± 0.29 | 912.34 ± 0.3 | 902.77 ± 0.32 | 892.99 ± 0.33
x1 = 0.9585 | 957.65 ± 0.24 | 948.49 ± 0.25 | 939.2 ± 0.26 | 929.78 ± 0.28 | 920.21 ± 0.29 | 910.45 ± 0.31

Source: the NIST ThermoML archive (doi:10.1016/j.jct.2006.06.001)
